Data as given in patent publication US20220153732A1, “PROTEIN SECRETION INHIBITORS” (KEZAR LIFE SCIENCES, priority 2019, published 2022).
Like-named read-outs stand apart in the source and are kept apart here.

Legend:
Assay type in all cases: cell-based
[1] = test system: TNFα-FL/Gaussia Luciferase; experiment: Dox Induced TNFα-FL-Gluc Assay; details: 293FRT/TO cells, read-out: 24 hr Dox Inducible TNFaFLGluc 293FRT/TO: Mean IC50
Procedure, shortened: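 Compounds were added in doxycycline-containing DMSO/media to cells plated the previous day and incubated at 37° C under 5% CO2. These cells stably express a TNFα-FL/Gaussia luciferase cDNA whose expression is under T-REx (Dox-inducible) control, selected with Hygromycin and Blasticidin.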

[2] = test system: HER3-ss+4aa/Gaussia Luciferase; experiment: Dox-Induced Her3-ss-Gluc Assay; details: 293FRT/TO cells, read-out: 24 hr Dox Inducible Her3(ss + 4)Gluc 293FRT/TO: Mean IC50
Procedure, shortened: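 Compounds, diluted in DMSO/media containing doxycycline, were incubated at 37° C., 5% CO2 with cells seeded one day earlier. The cells stably express HER3-ss+4aa/Gaussia luciferase under T-REx control. Where no stereochemistry is shown, data refer to the mixture of stereoisomers.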

[3] = test system: human multiple myeloma cell line NCI-H929; experiment: H929 Cell Viability Assay; details: 48 hr, NCI-H929 cells, Celltiter-Glo, read-out: 48 hr H929 Viability Celltiter-Glo: Mean EC50
Method: Plates were incubated at 37° C., 5% CO2 for 48 hours. After 48 hours, Celltiter-Glo® (Promega) was added to each well and luciferase signal was quantified using Tecan Infinite M1000 Pro for cell viability determination.
For chemical structures that include one or more stereoisomers, but are illustrated without indicating stereochemistry, the assay data refers to a mixture of stereoisomers.

[4] = test system: human multiple myeloma cell line U266B1; experiment: U266 Cell Viability Assay; details: U-266, 48 hr, U266B1 cells, Celltiter-Glo, read-out: 48 hr U266 Viability Celltiter-Glo: Mean EC50
Procedure, shortened: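 Viability measured by CellTiter-Glo luciferase signal after 48 h compound exposure (37 °C, 5% CO2) of U266B1 cells in 384-well format. Where stereochemistry is not shown, data refer to the stereoisomer mixture.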

[5] = test system: IL-2-FL/Gaussia Luciferase; experiment: Dox Induced IL2-FL-Gluc Assay; details: 293FRT/TO cells, read-out: 24 hr Dox Inducible IL2FLGIuc 293FRT/TO: Mean IC50
Procedure, shortened: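 Compounds were added together with doxycycline in DMSO/media and incubated at 37° C., 5% CO2. The cells were a stably selected line carrying IL-2-FL/Gaussia luciferase under T-REx inducible control. Structures drawn without stereochemistry were tested as stereoisomer mixtures.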

[6] = test system: PD1-ss+10aa/Gaussia Luciferase; experiment: Dox-Induced PD1-ss-Gluc Assay; details: 293FRT/TO cells, read-out: 24 hr Dox Inducible PD1ssGluc 293FRT/TO: Mean IC50
Procedure, shortened: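 Compounds, diluted in DMSO/media with doxycycline, were added to cells plated a day earlier and kept at 37° C under 5% CO2. The cells stably express a Gaussia luciferase construct fused to PD1-ss+10aa, induced via the T-REx system. Unassigned stereochemistry means mixture data.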

[7] = 24 hr doxycycline induction, Gaussia luciferase signal

Row | Compound | IC50 ([1]; 24 hr, doxycycline-induced) [µM] | IC50 ([2]; 24 hr, doxycycline-induced) [µM] | EC50 [3] [µM] | EC50 [4] [µM] | IC50 ([5]; 24 hr, doxycycline-induced) [µM] | IC50 ([6]; 24 hr, doxycycline-induced) [µM] | IC50 [1, 7] [µM] | IC50 [2, 7] [µM] | IC50 [5, 7] [µM] | IC50 [6, 7] [µM]
1 | CC(C)(C)c1csc(NC(=O)c2cccn2Cc2ccccc2)n1 [Compound B27, 1-benzyl-N-(4-(tert-butyl)thiazol-2-yl)-1H-pyrrole-2-carboxamide] | > 25 | > 25 | > 25 | > 25 | > 25 | > 25 | – | – | – | –
2 | CC(C)OC(C)(C)c1csc(NC(=O)c2sccc2-c2ccncc2)n1 [Compound A348] | > 25 | > 25 | 17 | 18.3 | > 25 | > 25 | – | – | – | –
3 | O=C(Nc1nc2ccsc2s1)c1cccn1Cc1ccncc1 [Compound A60] | – | – | > 25 | > 25 | – | – | > 25 | 3.75 | 2.69 | 1.57
4 | COc1ccc([C@@H]2C[C@H]2c2csc(NC(=O)c3cccn3Cc3ccncc3)n2)nc1 [Compound A311] | 3.33 | 0.51 | 6.02 | 6.23 | 0.874 | 0.175 | – | – | – | –
5 | O=C(Nc1nc(/C=C/C2=CCCCC2)cs1)c1cccn1Cc1ccncc1 [Compound A244, N-(4-(2-(cyclohex-1-en-1-yl)vinyl)thiazol-2-yl)-1-(pyridin-4-ylmethyl)-1H-pyrrole-2-carboxamide] | – | – | 17.7 | 17.4 | – | – | 1.43 | 0.225 | 0.648 | 0.081
6 | CC(C)OC(C)(C)c1csc(NC(=O)c2cccn2CCCc2ccccc2)n1 [Compound A64, N-(4-(2-isopropoxypropan-2-yl)thiazol-2-yl)-1-(3-phenylpropyl)-1H-pyrrole-2-carboxamide] | – | – | 23.2 | > 25 | – | – | > 25 | 3.48 | 2.72 | 1.73
7 | CC(C)OC(C)(C)c1csc(NC(=O)c2cccn2Cc2cc[n+]([O-])cc2)n1 [Compound A85] | – | – | > 25 | > 25 | – | – | > 25 | > 25 | > 25 | 7.54
8 | CC(C)Cc1cnc(NC(=O)c2cccn2Cc2ccncc2)s1 [Compound A57] | – | – | > 25 | > 25 | – | – | > 25 | 4.2 | 4.93 | 1.42
9 | O=C(Nc1nc(/C=C/c2ncc(OC3CCCC3)cc2F)cs1)c1cccn1Cc1ccncc1 [Compound A295] | 3.56 | 0.692 | 18.3 | 18.9 | 0.846 | 0.005 | – | – | – | –
10 | COc1cc(Cn2cccc2C(=O)Nc2nc(C(C)(C)OC(C)C)cs2)ccn1 [Compound A125, N-(4-(2-isopropoxypropan-2-yl)thiazol-2-yl)-1-((2-methoxypyridin-4-yl)methyl)-1H-pyrrole-2-carboxamide] | – | – | > 25 | > 25 | – | – | > 25 | > 25 | > 25 | > 25
11 | O=C(Nc1nc(C2CCC(c3ccccc3)CC2)cs1)c1cccn1Cc1ccncc1 (stereo not drawn) [Compound A255] | – | – | 7.21 | 18.1 | – | – | 1.33 | 0.25 | 0.477 | 0.102
12 | Cc1cnccc1Cn1cccc1C(=O)Nc1nc(C(C)(C)OC(C)C)cs1 [Compound A24, N-(4-(2-isopropoxypropan-2-yl)thiazol-2-yl)-1-((3-methylpyridin-4-yl)methyl)-1H-pyrrole-2-carboxamide] | – | – | > 25 | > 25 | – | – | 11.7 | 0.619 | 0.477 | 0.303
13 | COCc1cnc(NC(=O)c2cccn2Cc2ccncc2)s1 [Compound A94] | – | – | > 25 | > 25 | – | – | > 25 | > 25 | > 25 | 14.6
14 | CC(C)OC(C)(C)c1csc(NC(=O)c2cccn2Cc2c(F)cncc2F)n1 [Compound A256, 1-((3,5-difluoropyridin-4-yl)methyl)-N-(4-(2-isopropoxypropan-2-yl)thiazol-2-yl)-1H-pyrrole-2-carboxamide] | – | – | > 25 | > 25 | – | – | > 25 | 4.04 | 2.87 | 2.15

Continued, values first:

Row | IC50 ([1]; 24 hr, doxycycline-induced) [µM] | IC50 ([2]; 24 hr, doxycycline-induced) [µM] | EC50 [3] [µM] | EC50 [4] [µM] | IC50 ([5]; 24 hr, doxycycline-induced) [µM] | IC50 ([6]; 24 hr, doxycycline-induced) [µM] | IC50 [1, 7] [µM] | IC50 [2, 7] [µM] | IC50 [5, 7] [µM] | IC50 [6, 7] [µM] | Compound
15 | – | – | > 25 | > 25 | – | – | > 25 | 4.05 | 4.45 | 1.38 | CC(C)(C)c1cnc(NC(=O)c2cccn2Cc2ccncc2)s1 [Compound A54]
16 | – | – | > 25 | > 25 | – | – | > 25 | 5.31 | 6.47 | 1.42 | O=C(Nc1nc2c(s1)CCC2)c1cccn1Cc1ccncc1 [Compound A56]
17 | – | – | 2.44 | 23.9 | – | – | 0.81 | 0.102 | 0.145 | 0.043 | CC(OC(C)(C)c1csc(NC(=O)c2cccn2Cc2ccncc2)n1)c1ccc(Cl)cc1 (stereo not drawn) [Compound A5, N-(4-(2-(1-(4-chlorophenyl)ethoxy)propan-2-yl)thiazol-2-yl)-1-(pyridin-4-ylmethyl)-1H-pyrrole-2-carboxamide]
18 | – | – | 22.7 | > 25 | – | – | 11.8 | 0.809 | 0.927 | 0.552 | CC(C)OC(C)(C)c1nc(NC(=O)c2cccn2Cc2ccncc2)sc1Br [Compound A30]
19 | – | – | 11.7 | > 25 | – | – | 1.42 | 0.344 | 0.549 | 0.125 | CC(/C=C/c1csc(NC(=O)c2cccn2Cc2ccncc2)n1)c1ccccc1 (stereo not drawn) [Compound A251]
20 | – | – | 23 | > 25 | – | – | 7.18 | 3.07 | 3.87 | 1.35 | O=C(Nc1nc(C2CCc3ccccc3O2)cs1)c1cccn1Cc1ccncc1 (stereo not drawn) [Compound A283]
21 | – | – | > 25 | > 25 | – | – | > 25 | > 25 | > 25 | 12.7 | CC(C)OC(C)(C)c1csc(NC(=O)c2ccccc2Cc2ccncc2)n1 [Compound A280, N-(4-(2-isopropoxypropan-2-yl)thiazol-2-yl)-2-(pyridin-4-ylmethyl)benzamide]
22 | – | – | > 25 | > 25 | – | – | > 25 | 6.11 | 22.4 | 2.47 | Cc1cnc(NC(=O)c2cccn2Cc2ccncc2)s1 [Compound A72, N-(5-methylthiazol-2-yl)-1-(pyridin-4-ylmethyl)-1H-pyrrole-2-carboxamide]
23 | – | – | > 21.6 | > 25 | – | – | 20.3 | 1.57 | 2.92 | 0.013 | COc1ccc(/C=C/c2csc(NC(=O)c3cccn3Cc3ccncc3)n2)nc1 [Compound A269, N-(4-(2-(5-methoxypyridin-2-yl)vinyl)thiazol-2-yl)-1-(pyridin-4-ylmethyl)-1H-pyrrole-2-carboxamide]
24 | – | – | 2.99 | 3.76 | – | – | > 25 | 4.2 | 4.57 | 4.74 | CC(C)OC(C)(C)c1csc(NC(=O)c2cccn2Cc2ccncc2NCc2ccccc2)n1 [Compound A212, 1-((3-(benzylamino)pyridin-4-yl)methyl)-N-(4-(2-isopropoxypropan-2-yl)thiazol-2-yl)-1H-pyrrole-2-carboxamide]
25 | – | – | > 25 | > 25 | – | – | > 25 | > 25 | > 25 | > 25 | CN(C(=O)c1cccn1Cc1ccncc1)c1nc2ccccc2s1 [Compound A116]
26 | 0.226 | 0.029 | 1.31 | > 25 | 0.013 | 0.018 | – | – | – | – | O=C(Nc1nc([C@H]2CC(F)(F)CN2c2ccccc2)cs1)c1cccn1Cc1ccncc1 [Compound A339]
